Values of other authors in patent publication US20040259850A1, “Method for treating or preventing symptoms of hormonal variation including hot flashes” (priority 2001, published 2004).

Columns and labels:
[1] = test system: hot flashes in patients; details: cited from earlier work; for amelioration of hot flashes, general statement: comparison of clonidine with estrogen
[2] = as stated in the background; cited from earlier work

Molecule: CN1CCN2c3ncccc3Cc3ccccc3C2C1 (centres unmarked) [Mirtazapine]
- effect on hot flushes and perspiration bouts ([1]; four case reports (Waldinger et al. 2000)): appears to have an ameliorating effect

Molecule: Clc1cccc(Cl)c1N=C1NCCN1 [clonidine]
- amelioration of hot flashes, general statement [1]: only mildly ameliorates hot flashes
- effect on frequency and severity of hot flashes ([1]; transdermal, tamoxifen-treated women (Goldberg et al. 1994)): only a moderate effect

Molecule: CC(=O)O[C@]1(C(C)=O)CC[C@H]2[C@@H]3C=C(C)C4=CC(=O)CC[C@]4(C)[C@H]3CC[C@@]21C [megestrol acetate]
- side effects [2]: chronic adrenal insufficiency can be a side effect
- effect on frequency of hot flashes ([1]; low dose oral, men and women, short term study (Loprinzi et al. 1994)): reduce the frequency of hot flashes

Molecule: COc1ccc(C(CN(C)C)C2(O)CCCCC2)cc1 (centres unmarked) [venlafaxine]
- side effects [2]: mouth dryness, decreased appetite, nausea and constipation
- effect on hot flashes ([1]; early studies, survivors of breast cancer (Loprinzi et al. 2000)): effective non-hormonal method to diminish hot flashes

Molecule: estrogen
- amelioration of hot flashes, general statement [1]: can virtually eliminate them
